Test results from US10640511B2, “Hepatitis B antiviral agents” (ENANTA PHARMACEUTICALS, INC., priority 2016, dated 2020).
pEC50: −log10 of the molar value.

Legend:
[1] = system: HBV; assay: HepAD38 antiviral assay: reduction of viral product accumulation (virion DNA by qPCR; HBsAg/HBeAg ELISA); type: cell-based, hepatitis B virus (HBV); conditions: Hepatitis B virus, 120 h; HepAD38 cells; 50% reduction of viral product accumulation relative to no drug controls; harvest five days after compound addition
Experimental: Methods: HepAD38 cells are maintained as previously reported (Ladner et al, Antimicrob. Agents Chemother. 1997, […], 1715). Briefly, cells are passaged upon attaining confluency in DMEM/F12 media in the presence of 10% FBS, Penn/Strep, 250 μg/mL G418, and 1 μg/ml tetracycline. Novel compounds are screened by first washing cells three times with PBS to remove tetracycline, and plating in 96 well plates at 35,000 cells/well. Compounds dissolved in DMSO are then diluted 1:200 into wells containing cells. Five days after compound addition, material is harvested for analysis. For an extended 8 day analysis, cells are plated and treated as described above, but media and compound are refreshed on d2 and d5 post initial treatment.
On harvest day, virion DNA is obtained by lysing with Sidestep Lysis and Stabilization Buffer and then quantified via quantitative real time PCR. Commercially available ELISA kits are used to quantitate the viral proteins HBsAg (Alpco) or HbeAg (US Biological) by following the manufacturer's recommended protocol after diluting samples to match the linear range of their respective assays. Irrespective of readout, compound concentrations that reduce viral product accumulation in the cell lysates or supernatants by 50% relative to no drug controls (EC50) are reported; EC50 ranges are as follows: A<0.1 μM; B 0.1-1 μM; C>1 μM.

[2] = Compound toxicity, ATPLite total ATP levels; type: cell-based; conditions: human, HepG2 cells, 50% reduction of total ATP levels (ATPLite) three days after compound addition
Experimental: Compound toxicity is evaluated by seeding cells at 15,000 cells/well and treating with compound as described above.

**Q.** Which results are given for `Cn1ccc(C2=C3CC(NC(=O)OC(C)(C)C)CN3C(c3nccs3)=N[C@H]2c2ccc(F)cc2Cl)n1` (some centres unmarked) [Example 1]?
**A.** pEC50 [1]: > 7.00; CC50 at 3 days ([2]; class symbols): < 10000 nM

**Q.** With `Cn1ccc(C2=C3CC(NS(=O)(=O)C4CC4)CN3C(c3nccs3)=N[C@H]2c2ccc(F)cc2Cl)n1` (some centres unmarked) [Example 2] as the compound, how does the pEC50 [1] read?
**A.** The pEC50 was greater than 7.00.

**Q.** And the CC50 at 3 days ([2]; class symbols)?
**A.** Its CC50 at 3 days is greater than 25000 nM.

**Q.** With `Cn1ccc(C2=C3C[C@H](NS(=O)(=O)C4CC4)CN3C(c3nccs3)=N[C@H]2c2ccc(F)cc2Cl)n1` [Example 3] as the compound, how does the pEC50 [1] read?
**A.** Its pEC50 is greater than 7.00.

**Q.** With `Cn1ccc(C2=C3C[C@H](NS(=O)(=O)C4CC4)CN3C(c3nccs3)=NC2(C)c2ccc(F)cc2)n1` (some centres unmarked) [Example 4] as the compound, how does the pEC50 [1] read?
**A.** The pEC50 was greater than 7.00.

**Q.** With `Cn1ccc(C2=C3C[C@H](NS(=O)(=O)C4CC4)CN3C(c3nccs3)=N[C@@]2(C)c2ccc(F)cc2)n1` [Example 5] as the compound, how does the pEC50 [1] read?
**A.** The pEC50 was greater than 7.00.

**Q.** With `Cn1ccc(C2=C3C[C@H](NS(C)(=O)=O)CN3C(c3nccs3)=N[C@H]2c2ccc(F)cc2Cl)n1` [Example 6] as the compound, how does the pEC50 [1] read?
**A.** The pEC50 was greater than 7.00.

**Q.** With `CCS(=O)(=O)N[C@H]1CC2=C(c3ccn(C)n3)[C@H](c3ccc(F)cc3Cl)N=C(c3nccs3)N2C1` [Example 7] as the compound, how does the pEC50 [1] read?
**A.** The pEC50 was greater than 7.00.

**Q.** With `CC(C)S(=O)(=O)N[C@H]1CC2=C(c3ccn(C)n3)[C@H](c3ccc(F)cc3Cl)N=C(c3nccs3)N2C1` [Example 8] as the compound, how does the pEC50 [1] read?
**A.** Its pEC50 is greater than 7.00.

**Q.** With `Cn1ccc(C2=C3C[C@H](NS(=O)(=O)Cc4ccccc4)CN3C(c3nccs3)=N[C@H]2c2ccc(F)cc2Cl)n1` [Example 9] as the compound, how does the pEC50 [1] read?
**A.** The pEC50 was greater than 7.00.

**Q.** With `Cn1ccc(C2=C3C[C@H](NS(=O)(=O)C4(C)CC4)CN3C(c3nccs3)=N[C@H]2c2ccc(F)cc2Cl)n1` [Example 10] as the compound, how does the pEC50 [1] read?
**A.** Its pEC50 is greater than 7.00.

**Q.** With `Cn1ccc(C2=C3C[C@H](NS(=O)(=O)C4CCC4)CN3C(c3nccs3)=N[C@H]2c2ccc(F)cc2Cl)n1` [Example 11] as the compound, how does the pEC50 [1] read?
**A.** The pEC50 was greater than 7.00.

**Q.** With `Cn1ccc(C2=C3C[C@H](NS(=O)(=O)C4CCCC4)CN3C(c3nccs3)=N[C@H]2c2ccc(F)cc2Cl)n1` [Example 12] as the compound, how does the pEC50 [1] read?
**A.** Its pEC50 is greater than 7.00.

**Q.** With `Cn1ccc(C2=C3C[C@H](NS(=O)(=O)C4CCCCC4)CN3C(c3nccs3)=N[C@H]2c2ccc(F)cc2Cl)n1` [Example 13] as the compound, how does the pEC50 [1] read?
**A.** Its pEC50 is greater than 7.00.

**Q.** With `Cn1ccc(C2=C3C[C@H](NS(=O)(=O)c4ccccc4)CN3C(c3nccs3)=N[C@H]2c2ccc(F)cc2Cl)n1` [Example 14] as the compound, how does the pEC50 [1] read?
**A.** Its pEC50 is greater than 7.00.

**Q.** With `O=S(=O)(N[C@H]1CC2=C(c3ncco3)[C@H](c3ccc(F)cc3Cl)N=C(c3nccs3)N2C1)C1CC1` [Example 15] as the compound, how does the pEC50 [1] read?
**A.** Its pEC50 is greater than 7.00.

**Q.** With `Cn1ccc(C2=C3C[C@H](NS(=O)(=O)C4CC4)CN3C(c3nccs3)=N[C@@]2(C)c2ccc(F)c(F)c2)n1` [Example 16] as the compound, how does the pEC50 [1] read?
**A.** The pEC50 was greater than 7.00.

**Q.** What does the source list for `[2H]C([2H])([2H])n1ccc(C2=C3C[C@H](NS(=O)(=O)C4CC4)CN3C(c3nccs3)=N[C@H]2c2ccc(F)cc2Cl)n1` [Example 17]?
**A.** pEC50 [1]: > 7.00; CC50 at 3 days ([2]; class symbols): > 25000 nM

**Q.** Which results are given for `Cc1cnc(C2=C3C[C@H](NS(=O)(=O)C4CC4)CN3C(c3nccs3)=N[C@H]2c2ccc(F)cc2Cl)o1` [Example 18]?
**A.** pEC50 [1]: > 7.00; CC50 at 3 days ([2]; class symbols): > 25000 nM

**Q.** With `Cn1cc(C2=C3C[C@H](NS(=O)(=O)C4CC4)CN3C(c3nccs3)=N[C@H]2c2ccc(F)cc2Cl)cn1` [Example 19] as the compound, how does the pEC50 [1] read?
**A.** Its pEC50 is greater than 7.00.

**Q.** With `Cn1ccc(C2=C3C[C@H](NS(N)(=O)=O)CN3C(c3nccs3)=N[C@H]2c2ccc(F)cc2Cl)n1` [Example 20] as the compound, how does the pEC50 [1] read?
**A.** Its pEC50 is greater than 7.00.

**Q.** And the CC50 at 3 days ([2]; class symbols)?
**A.** The CC50 at 3 days was greater than 25000 nM.

**Q.** With `Cc1coc(C2=C3C[C@H](NS(=O)(=O)C4CC4)CN3C(c3nccs3)=N[C@H]2c2ccc(F)cc2Cl)n1` [Example 21] as the compound, how does the pEC50 [1] read?
**A.** The pEC50 was greater than 7.00.

**Q.** With `CCn1ccc(C2=C3C[C@H](NS(=O)(=O)C4CC4)CN3C(c3nccs3)=N[C@H]2c2ccc(F)cc2Cl)n1` [Example 22] as the compound, how does the pEC50 [1] read?
**A.** The pEC50 was greater than 7.00.

**Q.** What about the CC50 at 3 days ([2]; numeric bound) of the same compound?
**A.** The CC50 at 3 days was greater than 6000 nM.

**Q.** With `O=S(=O)(N[C@H]1CC2=C(c3ccccn3)[C@H](c3ccc(F)cc3Cl)N=C(c3nccs3)N2C1)C1CC1` [Example 23] as the compound, how does the pEC50 [1] read?
**A.** Its pEC50 is 6.00 to 7.00.
